This note sets out measurements from patent US20260256925A1, “INDAZOLE DERIVATIVES AS ESTROGEN RECEPTOR DEGRADERS” (REGENTS OF THE UNIVERSITY OF MICHIGAN, priority 2022, published 2026).

Assay [1] has as its target T1, ER (Homo sapiens, UniProt P03372).
T1 construct: endogenous in cells; probably T47D or MCF-7
T1 sequence (P03372 1-595): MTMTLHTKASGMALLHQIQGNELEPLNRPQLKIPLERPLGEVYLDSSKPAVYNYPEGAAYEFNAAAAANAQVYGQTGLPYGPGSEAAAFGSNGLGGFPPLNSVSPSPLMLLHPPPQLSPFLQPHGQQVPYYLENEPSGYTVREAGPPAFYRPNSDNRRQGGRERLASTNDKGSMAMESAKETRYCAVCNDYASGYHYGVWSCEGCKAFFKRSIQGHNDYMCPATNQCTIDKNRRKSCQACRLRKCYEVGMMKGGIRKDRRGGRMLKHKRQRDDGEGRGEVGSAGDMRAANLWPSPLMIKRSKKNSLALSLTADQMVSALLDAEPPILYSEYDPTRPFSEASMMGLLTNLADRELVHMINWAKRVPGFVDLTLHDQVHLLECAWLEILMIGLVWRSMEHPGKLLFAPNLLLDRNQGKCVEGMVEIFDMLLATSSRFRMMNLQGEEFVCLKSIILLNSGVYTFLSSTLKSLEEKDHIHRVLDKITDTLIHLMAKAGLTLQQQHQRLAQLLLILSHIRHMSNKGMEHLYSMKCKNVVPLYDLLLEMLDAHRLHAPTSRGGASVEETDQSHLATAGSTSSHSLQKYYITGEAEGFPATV
In words: Western blot analysis (compounds B1-B126). In kind it is cell-based. The note with it: ER degradation, read-out: Traditional Western Degradation potency (DC50). On the procedure: Western Blot Analysis. The cells that are treated with the compounds are lysed in Radioimmunoprecipitation Assay Protein Lysis and Extraction Buffer (e.g., 25 mmol/L Tris.HCl, pH 7.6, 150 mmol/L NaCl, 1% Nonidet P-40, 1% sodium deoxycholate, and 0.1% sodium dodecyl sulfate) containing proteinase inhibitor cocktail. Equal amounts of total protein are electrophoresed through 10% SDS-polyacrylamide gels after determination of protein concentration by BCA assay. The separated protein bands are transferred onto PVDF membranes and blotted against different antibodies. The blots are scanned, and the band intensities are quantified (e.g., by using GelQuant.NET software provided by biochemlabsolutions.com). The relative mean intensity of target proteins is expressed after normalization to the intensity of glyceraldehyde-3-phosphate dehydrogenase bands.
Western Blot Analysis. Western blot analysis was performed essentially as described previously. The cells treated with indicated compounds were lysed in Radioimmunoprecipitation Assay Protein Lysis and Extraction Buffer (25 mmol/L Tris.HCl, pH 7.6, 150 mmol/L NaCl, 1% Nonidet P-40, 1% sodium deoxycholate, and 0.1% sodium dodecyl sulfate) containing proteinase inhibitor cocktail (Roche Diagnostics, Mannheim, Germany). Equal amounts of total protein were electrophoresed through 10% SDS-polyacrylamide gels after determination of protein concentration by BCA assay (Fisher Scientific, Pittsburgh, PA). The separated protein bands were transferred onto PVDF membranes (GE Healthcare Life Sciences, Marlborough, MA) and blotted against different antibodies, as indicated. The blots were scanned, and the band intensities were quantified using GelQuant.NET software provided by biochemlabsolutions.com. The relative mean intensity of target proteins was expressed after normalization to the intensity of glyceraldehyde-3-phosphate dehydrogenase bands.
On the technique in general: Immunoblotting shows a protein as a band on a membrane.

Assay [2] concerns the target T1, ER. As to the kind of experiment: In-cell western blot analysis, relative ER percentage (compounds B1-B126). In kind it is cell-based. The following applies: ER degradation, 16 hours, read-out: ICW DC50. The method in brief: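 Readout was a two-colour infrared in-cell western of formaldehyde-fixed cells after 16 h compound exposure at 0.5% DMSO, with 40,000 or 10,000 cells/well plated the previous night. Relative ER percentage compares treated wells against untreated/DMSO-treated wells taken as 100%.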

For another assay, the target named is T2, CRBN/DDB1 (Homo sapiens, UniProt Q96SW2).
T2 construct: purchased Wuxi RP210521GA
In kind it is binding. The note with it: HTRF, Cy5-labeled Thalidomide probe. How it is done: The binding potency was determined using HTRF assay technology (Perkin Elmer). Compounds were serially diluted in DMSO and 0.2 μL volume was transferred to white 384-well plate.
On the technique in general: In TR-FRET formats the signal depends on donor and acceptor labels being close together.

Assay [3] in a line: Cell growth assay, WST-8 (compounds B1-B126). The following applies: 96 h; T47D cell line, WST-8, 4 days; read-out: Cell growth inhibition in T47D cell line IC50. The assay is classed as cell-based. A digest of the protocol: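 Read-out is WST-8 absorbance at 450 nm (2.5 h, 37° C) as a fraction of vehicle control, from three separate repeats. Compound exposure lasted 4 days, starting one day after plating 1500 cells/well.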
For orientation: Tetrazolium dyes change colour on reduction, which living cells bring about.

T2 sequence (Q96SW2 whole entry): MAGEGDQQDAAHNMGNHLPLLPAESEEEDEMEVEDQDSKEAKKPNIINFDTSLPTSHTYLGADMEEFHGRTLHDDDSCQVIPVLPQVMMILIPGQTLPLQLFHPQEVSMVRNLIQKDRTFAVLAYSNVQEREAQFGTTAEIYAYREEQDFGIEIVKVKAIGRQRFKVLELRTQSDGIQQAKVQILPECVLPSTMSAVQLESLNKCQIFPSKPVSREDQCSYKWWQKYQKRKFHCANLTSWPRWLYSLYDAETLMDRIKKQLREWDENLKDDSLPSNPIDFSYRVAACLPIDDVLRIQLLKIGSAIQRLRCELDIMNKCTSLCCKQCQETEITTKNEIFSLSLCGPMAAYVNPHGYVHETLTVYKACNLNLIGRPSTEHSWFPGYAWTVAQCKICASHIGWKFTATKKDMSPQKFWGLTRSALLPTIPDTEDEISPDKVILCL
T2 sequence (Q16531 whole entry partner): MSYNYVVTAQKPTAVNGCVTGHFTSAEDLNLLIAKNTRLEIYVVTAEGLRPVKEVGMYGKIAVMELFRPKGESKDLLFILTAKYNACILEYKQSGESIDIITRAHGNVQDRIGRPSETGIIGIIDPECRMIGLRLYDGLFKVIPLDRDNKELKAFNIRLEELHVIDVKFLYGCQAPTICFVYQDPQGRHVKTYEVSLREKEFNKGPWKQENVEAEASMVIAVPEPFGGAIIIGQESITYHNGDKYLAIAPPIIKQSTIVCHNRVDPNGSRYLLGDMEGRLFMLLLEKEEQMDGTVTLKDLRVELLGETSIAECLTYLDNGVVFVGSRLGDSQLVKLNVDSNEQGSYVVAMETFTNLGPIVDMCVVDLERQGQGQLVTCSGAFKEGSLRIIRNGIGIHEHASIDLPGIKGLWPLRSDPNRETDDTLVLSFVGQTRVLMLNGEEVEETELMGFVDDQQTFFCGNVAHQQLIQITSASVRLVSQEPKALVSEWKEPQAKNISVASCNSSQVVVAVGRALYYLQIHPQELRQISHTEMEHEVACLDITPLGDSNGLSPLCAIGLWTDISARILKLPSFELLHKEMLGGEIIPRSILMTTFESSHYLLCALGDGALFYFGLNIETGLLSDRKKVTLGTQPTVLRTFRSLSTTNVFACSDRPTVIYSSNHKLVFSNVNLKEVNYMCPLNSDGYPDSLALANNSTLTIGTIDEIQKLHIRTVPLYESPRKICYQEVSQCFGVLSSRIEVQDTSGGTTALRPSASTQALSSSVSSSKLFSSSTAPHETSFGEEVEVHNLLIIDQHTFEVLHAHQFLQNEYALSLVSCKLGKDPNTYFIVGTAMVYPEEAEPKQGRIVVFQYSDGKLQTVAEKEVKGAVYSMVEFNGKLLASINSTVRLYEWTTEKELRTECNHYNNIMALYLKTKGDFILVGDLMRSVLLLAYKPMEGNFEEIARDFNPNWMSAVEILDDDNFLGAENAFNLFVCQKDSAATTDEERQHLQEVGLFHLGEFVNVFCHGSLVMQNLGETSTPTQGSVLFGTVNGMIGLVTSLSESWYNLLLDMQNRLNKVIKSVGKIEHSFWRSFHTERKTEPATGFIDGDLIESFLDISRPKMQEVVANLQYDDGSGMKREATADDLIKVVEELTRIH

By DC50 is commonly meant the concentration giving 50% degradation. Take “6-((1R,4s)-4-(4-(4-((6S,8R)-7-(2,2- difluoroethyl)-8-methyl-6,7,8,9- tetrahydro-3H-pyrazolo[4,3- f]isoquinolin-6-yl)-3,5- difluorophenyl)piperidine-1- carbonyl)cyclohexyl)-2-(2,6- dioxopiperidin-3-yl)-6,7- dihydropyrrolo[3,4-f]isoindole- 1,3(2H,5H)-dione [Compound B9]”: the DC50 at ER [1] and on ER [2] was under 10 nM each time.

Take `C[C@@H]1Cc2c(ccc3[nH]ncc23)[C@@H](c2c(F)cc(N3CCC(CN4CCN5c6ccc7c(c6OCC5C4)CN(C4CCC(=O)NC4=O)C7=O)CC3)cc2F)N1CC(F)F` (mixture of isomers) [Compound B104, 3-((RS)-7-((1-(4-((6S,8R)-7-(2,2-difluoroethyl)-8-methyl-6,7,8,9-tetrahydro-3H-pyrazolo[4,3-f]isoquinolin-6-yl)-3,5-difluorophenyl)piperidin-4-yl)methyl)-1-oxo-1,3,5,5a,6,7,8,9-octahydro-2H-pyrazino[1′,2′:4,5][1,4]oxazino[2,3-e]isoindol-2-yl)piperidine-2,6-dione]: the 50% degradation concentration (DC50) on ER [1] and at ER [2] was 10 to 100 nM throughout. One may read the IC50 as the concentration needed to halve the response being measured. Compound `C[C@@H]1Cc2c(ccc3[nH]ncc23)[C@@H](c2c(F)cc(N3CCC4(CCN(C(=O)CN5Cc6cc(F)c(C(=O)N[C@H]7CCC(=O)NC7=O)cc6C5)CC4)CC3)cc2F)N1CC(F)F` [Compound A1, 2-(2-(9-(4-((6S,8R)-7-(2,2-difluoroethyl)-8-methyl-6,7,8,9-tetrahydro-3H-pyrazolo[4,3-f]isoquinolin-6-yl)-3,5-difluorophenyl)-3,9-diazaspiro[5.5]undecan-3-yl)-2-oxoethyl)-N-((S)-2,6-dioxopiperidin-3-yl)-6-fluoroisoindoline-5-carboxamide] had an IC50 against CRBN/DDB1 of over 5000 nM. Take `C[C@@H]1Cc2c(ccc3[nH]ncc23)[C@@H](c2c(F)cc(N3CCC(CN4CCN5c6cc7c(cc6OC[C@@H]5C4)C(=O)N(C4CCC(=O)NC4=O)C7)CC3)cc2F)N1CC(F)F` (some centres unmarked) [Compound B16]: the IC50 in assay [3] is under 1 nM. Besides, the DC50 on ER [1] lay within 10 to 100 nM. Consider `C[C@@H]1Cc2c(ccc3[nH]ncc23)[C@@H](c2c(F)cc(NC3CN(C(=O)[C@H]4CC[C@H](N5Cc6cc7c(cc6C5)C(=O)N(C5CCC(=O)NC5=O)C7=O)CC4)C3)cc2F)N1CC(F)F` (stereo partly drawn) [Compound B24, 6-((1S,4r)-4-(3-((4-((6S,8R)-7-(2,2-difluoroethyl)-8-methyl-6,7,8,9-tetrahydro-3H-pyrazolo[4,3-f]isoquinolin-6-yl)-3,5-difluorophenyl)amino)azetidine-1-carbonyl)cyclohexyl)-2-(2,6-dioxopiperidin-3-yl)-6,7-dihydropyrrolo[3,4-f]isoindole-1,3(2H,5H)-dione], for which the IC50 in assay [3] was in the range of 1 to 10 nM. For the same compound, the half-maximal degradation concentration (DC50) on ER [1] is 10 to 100 nM. For `C[C@@H]1Cc2c(ccc3[nH]ncc23)[C@@H](c2c(F)cc(NC3CN(C(=O)[C@H]4CC[C@@H](N5Cc6cc7c(cc6C5)C(=O)N(C5CCC(=O)NC5=O)C7=O)CC4)C3)cc2F)N1CC(F)F` (stereo partly drawn) [Compound B25, 6-((1R,4s)-4-(3-((4-((6S,8R)-7-(2,2-difluoroethyl)-8-methyl-6,7,8,9-tetrahydro-3H-pyrazolo[4,3-f]isoquinolin-6-yl)-3,5-difluorophenyl)amino)azetidine-1-carbonyl)cyclohexyl)-2-(2,6-dioxopiperidin-3-yl)-6,7-dihydropyrrolo[3,4-f]isoindole-1,3(2H,5H)-dione], in that order: 1 to 10 nM and under 10 nM.

As to `C[C@@H]1Cc2c(ccc3[nH]ncc23)[C@@H](c2c(F)cc(N3CCC(CN4CCN(c5ccc6c(c5)CN(C5CCC(=O)NC5=O)C6=O)CC4)CC3)cc2F)N1CC(F)F` (stereo partly drawn) [Compound B67, 3-(5-(4-((1-(4-((6S,8R)-7-(2,2-difluoroethyl)-8-methyl-6,7,8,9-tetrahydro-3H-pyrazolo[4,3-f]isoquinolin-6-yl)-3,5-difluorophenyl)piperidin-4-yl)methyl)piperazin-1-yl)-1-oxoisoindolin-2-yl)piperidine-2,6-dione], in assay [3], the concentration for half-maximal inhibition (IC50) was under 1 nM. Further, the DC50 on ER [1] and on ER [2] was under 10 nM throughout.

For the compound `C[C@@H]1Cc2c(ccc3[nH]ncc23)[C@@H](c2c(F)cc(N3CCC(CN4CCC(N5Cc6cc7c(cc6C5)C(=O)N(C5CCC(=O)NC5=O)C7=O)CC4)CC3)cc2F)N1CC(F)F` (stereo partly drawn) [Compound B70, 6-(1-((1-(4-((6S,8R)-7-(2,2-difluoroethyl)-8-methyl-6,7,8,9-tetrahydro-3H-pyrazolo[4,3-f]isoquinolin-6-yl)-3,5-difluorophenyl)piperidin-4-yl)methyl)piperidin-4-yl)-2-(2,6-dioxopiperidin-3-yl)-6,7-dihydropyrrolo[3,4-f]isoindole-1,3(2H,5H)-dione], at ER [1], the DC50 lay within 10 to 100 nM. Still for that read-out and setting: the value for `C[C@@H]1Cc2c(ccc3[nH]ncc23)[C@@H](c2c(F)cc(N3CCC(CN4CCC(N5Cc6cc7c(cc6C5)C(=O)N(C5CCC(=O)NC5=O)C7)CC4)CC3)cc2F)N1CC(F)F` (stereo partly drawn) [Compound B71, 3-(6-(1-((1-(4-((6S,8R)-7-(2,2-difluoroethyl)-8-methyl-6,7,8,9-tetrahydro-3H-pyrazolo[4,3-f]isoquinolin-6-yl)-3,5-difluorophenyl)piperidin-4-yl)methyl)piperidin-4-yl)-1-oxo-3,5,6,7-tetrahydropyrrolo[3,4-f]isoindol-2(1H)-yl)piperidine-2,6-dione] was 10 to 100 nM; that for `C[C@@H]1Cc2c(ccc3[nH]ncc23)[C@@H](c2c(F)cc(N3CCC(C(=O)N4C5CCC4CC(N4Cc6cc7c(cc6C4)C(=O)N(C4CCC(=O)NC4=O)C7=O)C5)CC3)cc2F)N1CC(F)F` (stereo partly drawn) [Compound B103, 6-(8-(1-(4-((6S,8R)-7-(2,2-difluoroethyl)-8-methyl-6,7,8,9-tetrahydro-3H-pyrazolo[4,3-f]isoquinolin-6-yl)-3,5-difluorophenyl)piperidine-4-carbonyl)-8-azabicyclo [3.2.1]octan-3-yl)-2-(2,6-dioxopiperidin-3-yl)-6,7-dihydropyrrolo [3,4-f]isoindole-1,3(2H,5H)-dione] was over 100 nM; that for `C[C@@H]1Cc2c(ccc3[nH]ncc23)[C@@H](c2c(F)cc(N3CCC(CN4CCN5c6ccc7c(c6OC[C@@H]5C4)CN(C4CCC(=O)NC4=O)C7=O)CC3)cc2F)N1CC(F)F` (stereo partly drawn) [Compound B105, 3-((S)-7-((1-(4-((6S,8R)-7-(2,2-difluoroethyl)-8-methyl-6,7,8,9-tetrahydro-3H-pyrazolo[4,3-f]isoquinolin-6-yl)-3,5-difluorophenyl)piperidin-4-yl)methyl)-1-oxo-1,3,5,5a,6,7,8,9-octahydro-2H-pyrazino[1′,2′:4,5][1,4]oxazino[2,3-e]isoindol-2-yl)piperidine-2,6-dione] was over 100 nM. On to `C[C@@H]1Cc2c(ccc3[nH]ncc23)[C@@H](c2ccc(N3CCC4(CC3)CN(C(=O)CN3Cc5cc6c(cc5C3)C(=O)N(C3CCC(=O)NC3=O)C6=O)CCO4)cn2)N1CC(F)(F)F` (some centres unmarked) [Compound B111], for which the IC50 in assay [3] lay in the range of 1 to 10 nM. The DC50 on ER [1] is 10 to 100 nM.
